In brackets after ≈: the same amount, converted by molar mass. Several values for one entry are separate records, joined by “and”; a condition that tells them apart may be missing. Identical values can stand only once. Like-named read-outs stand apart in the source and are kept apart here.
Tests used:
M. kansasii = assay: microbe, parasite or virus in culture; format: cell-based; settings: Mycobacterium kansasii
M. avium = assay: microbe, parasite or virus in culture; format: cell-based; settings: Mycobacterium avium
M. tuberculosis H37Rv = format: cell-based, Mycobacterium tuberculosis; settings: for CFU/ml (average) / CFU/ml, single values / Intracellular M. tuberculosis, % (Drug Free = 100.0): Fig 3A, H37Rv
M. conceptionense = assay: microbe, parasite or virus in culture; format: cell-based, Mycobacterium conceptionense; settings: Mycolicibacterium senegalense
M. bovis = assay: microbe, parasite or virus in culture; format: cell-based; settings: Mycobacterium tuberculosis variant bovis
M. colombiense = assay: microbe, parasite or virus in culture; format: cell-based; settings: Mycobacterium colombiense
M. heraklionease = assay: microbe, parasite or virus in culture; format: cell-based; settings: Mycobacterium
XDR M. tuberculosis = assay: Luminescence-based microbial cell viability assay; set-up: species or system Mycobacterium tuberculosis
M. gordonae = assay: microbe, parasite or virus in culture; format: cell-based; settings: Mycobacterium gordonae
M. neoaurum = assay: microbe, parasite or virus in culture; format: cell-based, Mycobacterium neoaurum; settings: Mycolicibacterium neoaurum
[1] = test system: Staphylococcus epidermidis; assay: Broth dilution MIC (CLSI); format: cell-based; settings: read-out: MIC
Text: (§1) Bacteria (Acinetobacter baumannii NCCP 14782, Citrobacter freundii NCCP 14766, Enterobacter aerogenes NCCP 14761, Escherichia coli NCCP 14762, Escherichia coli O157 NCCP 14541, Klebsiella pneumoniae NCCP 14764, Proteus mirabilis NCCP 14763, Proteus vulgaris NCCP 14765, Pseudomonas aeruginosa NCCP 14781, Salmonella Enteritidis NCCP 14771, Salmonella Paratyphi A NCCP 14759, Salmonella Typhimurium NCCP 16207, Serratia marcescens NCCP 14770, Shigella boydii NCCP 14745, Shigella dysenteriae NCCP 14746, Shigella flexneri NCCP 14744, Shigella sonnei NCCP 14773, Bacillus subtilis NCCP 11101, Corynebacterium diphtheriae NCCP 10353, Staphylococcus aureus MSSA NCCP 14780, Staphylococcus aureus MRSA NCCP 14769, Staphylococcus epidermidis NCCP 14768, Streptococcus pneumoniae NCCP 14774) and fungi (Aspergillus fumigatus NCCP 22454, Candida albicans NCCP 32557, Cryptococcus neoformans NCCP 32559, Microsporum canis NCCP 22454, Rhizopus oryzae NCCP 22458, Saccharomyces cerevisiae NCCP 32558, Trichophyton rubrum NCCP 22456) strains were obtained from the National Culture Collection for Pathogens (NCCP) (Chungbuk, Korea). The MIC of each agent was determined following the Clinical and Laboratory Standards Institute (CLSI).[40]

Serratia marcescens = assay: Broth dilution MIC (CLSI); format: cell-based; settings: read-out: MIC
Text: as §1

[2] = test system: Staphylococcus aureus, MSSA; assay: Broth dilution MIC (CLSI); format: cell-based; settings: read-out: MIC
Text: as §1

Acinetobacter baumannii = assay: Broth dilution MIC (CLSI); format: cell-based; settings: read-out: MIC
Text: as §1

Shigella boydii = assay: Broth dilution MIC (CLSI); format: cell-based; settings: read-out: MIC
Text: as §1

Shigella flexneri = assay: Broth dilution MIC (CLSI); format: cell-based; settings: read-out: MIC
Text: as §1

Shigella sonnei = assay: Broth dilution MIC (CLSI); format: cell-based; settings: read-out: MIC
Text: as §1

[3] = test system: XDR M. tuberculosis (KMRC 00203–00197); format: cell-based, Mycobacterium tuberculosis; settings: for log reduction (CFU): 7 days
in vitro = format: cell-based; settings: human
Protocol: A549 human pulmonary epithelial cells (KCLB 10185), human embryonic kidney (HEK) 293 cells (KCLB 21573), human THP-1 leukemia cells (KCLB 40202), human neuroblastoma SH-SY5Y cells (KCLB 22266), Murine Raw 264.7 macrophages (KCLB 40071), and L929 murine fibroblasts (KCLB 10001) were purchased from the KCLB (Seoul, Korea). Cytotoxicity testing was performed using the MTT assay and the WST-1 cell viability assay as previously described.

M. phocaicum = assay: microbe, parasite or virus in culture; format: cell-based, Mycobacterium phocaicum; settings: Mycolicibacterium phocaicum
M. aubagnense = assay: microbe, parasite or virus in culture; format: cell-based, Mycobacterium aubagnense; settings: Mycolicibacterium aubagnense

Q: With `COC(=O)[C@@H]1CCC(=O)N1Cc1cc2ccc(OC)cc2c2cc(OC)c(OC)cc12` [PP1S, (S)-N-[(2,3,6-Trimethoxy-10-phenanthryl)methyl]-pyroglutamic acid methyl ester] as the molecule, how does the MIC (M. kansasii) read?
A: > 100 µg/mL

Q: What about the MIC (M. avium) of the same molecule?
A: > 100 µg/mL

Q: What about the “CFU/ml (average)” value (M. tuberculosis H37Rv; drug conc. 1.6) of the same molecule?
A: 26333 CFU/ml

Q: What about the “CFU/ml, single values” (M. tuberculosis H37Rv; drug conc. 1.6) of the same molecule?
A: 26400 CFU/ml and 26700 CFU/ml and 25900 CFU/ml

Q: What about the “Intracellular M. tuberculosis, % (Drug Free = 100.0)” value (M. tuberculosis H37Rv; drug conc. 1.6) of the same molecule?
A: 78.3%

Q: And the “CFU/ml (average)” value (M. tuberculosis H37Rv; drug conc. 3.1)?
A: 21190 CFU/ml

Q: And the “CFU/ml, single values” (M. tuberculosis H37Rv; drug conc. 3.1)?
A: 20900 CFU/ml and 22200 CFU/ml and 20470 CFU/ml

Q: And the “Intracellular M. tuberculosis, % (Drug Free = 100.0)” value (M. tuberculosis H37Rv; drug conc. 3.1)?
A: 63.0%

Q: What about the “CFU/ml (average)” value (M. tuberculosis H37Rv; drug conc. 6.3) of the same molecule?
A: 15203 CFU/ml

Q: And the “CFU/ml, single values” (M. tuberculosis H37Rv; drug conc. 6.3)?
A: 15200 CFU/ml and 14100 CFU/ml and 16310 CFU/ml

Q: What about the “Intracellular M. tuberculosis, % (Drug Free = 100.0)” value (M. tuberculosis H37Rv; drug conc. 6.3) of the same molecule?
A: 45.2%

Q: What about the “CFU/ml (average)” value (M. tuberculosis H37Rv; drug conc. 12.5) of the same molecule?
A: 8003 CFU/ml

Q: What about the “CFU/ml, single values” (M. tuberculosis H37Rv; drug conc. 12.5) of the same molecule?
A: 8000 CFU/ml and 7500 CFU/ml and 8510 CFU/ml

Q: What about the “Intracellular M. tuberculosis, % (Drug Free = 100.0)” value (M. tuberculosis H37Rv; drug conc. 12.5) of the same molecule?
A: 23.8%

Q: What about the “CFU/ml (average)” value (M. tuberculosis H37Rv; drug conc. 25) of the same molecule?
A: 707 CFU/ml

Q: And the “Intracellular M. tuberculosis, % (Drug Free = 100.0)” value (M. tuberculosis H37Rv; drug conc. 25)?
A: 2.1%

Q: And the “growth of M. tuberculosis in macrophages (CFU)” value (M. tuberculosis H37Rv; H37Rv in Raw 264.7 cells, 3 days, concentration-dependent)?
A: significantly inhibited the growth

Q: And the MIC (M. conceptionense)?
A: > 100 µg/mL

Q: What about the MIC (M. bovis) of the same molecule?
A: 1.6 µg/mL (≈ 3.78 µM)

Q: What about the MIC (M. colombiense) of the same molecule?
A: > 100 µg/mL

Q: And the MIC (M. heraklionease)?
A: > 100 µg/mL

Q: What about the “RLU/50ul (replicates1-3), single values” (XDR M. tuberculosis) of the same molecule?
A: 370 RLU/50ul (2×) and 430 RLU/50ul and 270 RLU/50ul and 260 RLU/50ul and 320 RLU/50ul and 360 RLU/50ul and 340 RLU/50ul and 390 RLU/50ul and 420 RLU/50ul and 450 RLU/50ul and 590 RLU/50ul and 610 RLU/50ul and 670 RLU/50ul and 570 RLU/50ul and 550 RLU/50ul (2×) and 460 RLU/50ul and 440 RLU/50ul and 630 RLU/50ul and 790 RLU/50ul and 540 RLU/50ul and 580 RLU/50ul and 840 RLU/50ul and 860 RLU/50ul and 750 RLU/50ul and 640 RLU/50ul

Q: And the “RLU/ml (×100)” value (XDR M. tuberculosis)?
A: 69.1 RLU/ml (×100) and 105.8 RLU/ml (×100) and 137.3 RLU/ml (×100)

Q: And the “concentration with significant antitubercular effect” value (XDR M. tuberculosis)?
A: 1.56 µg/mL and 0.78 µg/mL

Q: And the MIC (M. gordonae)?
A: > 100 µg/mL

Q: And the MIC (M. neoaurum)?
A: > 100 µg/mL

Q: What about the MIC [1] of the same molecule?
A: > 100 µg/mL

Q: And the MIC (Serratia marcescens)?
A: > 100 µg/mL

Q: What about the MIC [2] of the same molecule?
A: > 100 µg/mL

Q: And the MIC (Acinetobacter baumannii)?
A: > 100 µg/mL

Q: What about the MIC (Shigella boydii) of the same molecule?
A: > 100 µg/mL

Q: What about the MIC (Shigella flexneri) of the same molecule?
A: > 100 µg/mL

Q: And the MIC (Shigella sonnei)?
A: > 100 µg/mL

Q: And the “CFU (replicates1-3), single values” [3]?
A: 9800 CFU and 11000 CFU and 9100 CFU and 4200 CFU and 13900 CFU and 20700 CFU and 20100 CFU and 12600 CFU and 16500 CFU and 28000 CFU and 112000 CFU and 92700 CFU and 90100 CFU and 36800 CFU and 38700 CFU and 24400 CFU and 24700 CFU and 22500 CFU

Q: And the “log reduction (CFU)” value ([3]; at 0.8 μg/ml)?
A: 0.8

Q: And the “log reduction (CFU)” value ([3]; at 1.6 μg/ml)?
A: 1.3

Q: And the CC50 (in vitro; A549)?
A: > 500 µg/mL

Q: What about the CC50 (in vitro; HEK-293) of the same molecule?
A: > 500 µg/mL

Q: And the CC50 (in vitro; SH-SY5Y)?
A: > 500 µg/mL

Q: What about the CC50 (in vitro; THP-1) of the same molecule?
A: > 500 µg/mL

Q: What about the MIC (M. phocaicum) of the same molecule?
A: > 100 µg/mL

Q: What about the MIC (M. aubagnense) of the same molecule?
A: > 100 µg/mL

Q: For `COC(=O)[C@@H]1CCC(=O)N1Cc1cc2ccc(OCc3ccccc3)cc2c2cc(OC)c(OC)cc12` [PP3S, Methyl (S)-1-{[3-(Benzyloxy)-6,7-dimethoxy-9-phenanthryl]methyl}-5-oxopyrrolidine-2-carboxylate], which MIC (M. kansasii) is on record?
A: > 100 µg/mL

Q: And the MIC (M. avium)?
A: > 100 µg/mL

Q: And the MIC (M. conceptionense)?
A: > 100 µg/mL

Q: And the MIC (M. bovis)?
A: 3.12 µg/mL (≈ 6.25 µM)

Q: What about the MIC (M. colombiense) of the same molecule?
A: > 100 µg/mL

Q: And the MIC (M. heraklionease)?
A: > 100 µg/mL

Q: What about the MIC (M. gordonae) of the same molecule?
A: > 100 µg/mL

Q: What about the MIC (M. neoaurum) of the same molecule?
A: > 100 µg/mL

Q: And the MIC [1]?
A: > 100 µg/mL

Q: What about the MIC (Serratia marcescens) of the same molecule?
A: > 100 µg/mL

Q: And the MIC [2]?
A: > 100 µg/mL

Q: What about the MIC (Acinetobacter baumannii) of the same molecule?
A: > 100 µg/mL

Q: And the MIC (Shigella boydii)?
A: > 100 µg/mL

Q: What about the MIC (Shigella flexneri) of the same molecule?
A: > 100 µg/mL

Q: What about the MIC (Shigella sonnei) of the same molecule?
A: > 100 µg/mL

Q: And the “CFU (log)” value [3]?
A: 4.83 and 4.91

Q: What about the “CFU (replicates1-3), single values” [3] of the same molecule?
A: 41000 CFU and 66100 CFU and 72200 CFU and 71300 CFU and 95100 CFU and 88700 CFU and 98900 CFU and 41200 CFU and 40500 CFU and 105000 CFU and 75800 CFU and 72700 CFU and 52300 CFU and 61000 CFU and 63200 CFU and 62900 CFU and 137000 CFU and 98200 CFU

Q: And the “log reduction (CFU)” value ([3]; at 0.8 μg/ml)?
A: 0.5

Q: What about the “log reduction (CFU)” value ([3]; at 1.6 μg/ml) of the same molecule?
A: 0.6

Q: And the CC50 (in vitro; A549)?
A: > 500 µg/mL

Q: What about the CC50 (in vitro; HEK-293) of the same molecule?
A: 7.8 µg/mL (≈ 15.6 µM)

Q: What about the CC50 (in vitro; SH-SY5Y) of the same molecule?
A: 7.8 µg/mL (≈ 15.6 µM)

Q: What about the CC50 (in vitro; THP-1) of the same molecule?
A: > 500 µg/mL

Q: And the MIC (M. phocaicum)?
A: > 100 µg/mL

Q: What about the MIC (M. aubagnense) of the same molecule?
A: > 100 µg/mL
